“And” between values parts separate entries of the source, which are not always exact repeats. Equal entries are not always repeated. Where two headings read alike, the source gives them in different places.

One data set relates to subjects. The conditions noted are these: cited from earlier work.
The subject of a further data set is patch tested subjects. The note with it: PPD patch testing, cited from earlier work.
The test system of data set [1] is volunteers with a positive history of contact allergy to p-phenylenediamine. Briefly: Occluded patch test with p-phenylenediamine in petrolatum at treatment diameters of 8, 4, 3 and 2 mm. The data set is classed as in vivo, human. The conditions noted are these: 0.1% or 1.0% in petrolatum, under occlusion, diameters 8, 4, 3, 2 mm; reactions at 48 h, 72 h and/or 96 h. As to the method: 15 volunteers with a positive history of contact allergy to p-phenylenediamine were recruited. Contact allergy to p-phenylenediamine was determined based on their response to a standard 48 h, 8 mm diagnostic patch test with 1% p-phenylenediamine in petrolatum. According to their known sensitivity, these volunteers were tested with either 0.1% or 1.0% p-phenylenediamine in petrolatum, under occlusion, with treatment diameters of 8, 4, 3, and 2 mm. Reactions at 48 h, 72 h and/or 96 h were recorded using the Internationally accepted dermatology grading scale of N, ?+, +, ++. The responses were transposed into numerical values (0-3 respectively) and summated. The summated scores are presented below.

On to `O=[N+]([O-])c1ccc(Cl)c([N+](=O)[O-])c1` [DNCB, 2,4-dinitrochlorobenzene], for which the “% sensitised” value in the data set with subjects (Row 1: diameter 3 cm, area 7.1 cm^2, total 1000 μg, 142 μg/cm^2) was 100%; in the data set on subjects (Row 2: diameter 3 cm, area 7.1 cm^2, total 500 μg, 71 μg/cm^2), 100%; with subjects (Row 3: diameter 3 cm, area 7.1 cm^2, total 250 μg, 35.4 μg/cm^2), 83%; in the data set on subjects (Row 4: diameter 3 cm, area 7.1 cm^2, total 125 μg, 17.1 μg/cm^2) it was 63%; in the data set on subjects (Row 5: diameter 3 cm, area 7.1 cm^2, total 62.5 μg, 8.8 μg/cm^2), 8%; in the data set on subjects (Row 6: diameter 1.5 cm, area 1.8 cm^2, total 62.5 μg, 35.4 μg/cm^2), 85% and 86%. The “% sensitised” value with subjects (Row 7: diameter 2.1 cm, area 3.5 cm^2, total 58 μg, 16.4 μg/cm^2) is on record as 55%; in the data set on subjects (Row 8: diameter 3 cm, area 7.1 cm^2, total 116 μg, 16.4 μg/cm^2), 50%; with subjects (Row 9: diameter 4.25 cm, area 14.2 cm^2, total 232 μg, 16.4 μg/cm^2), 66%; with subjects (Row 10: l cm paper, area 0.8 cm^2, total 30 μg, 38 μg/cm^2), 93%; in the data set with subjects (Row 11: 3 mm paper, area 0.08 cm^2, total 3 μg, 38 μg/cm^2), 26%.

In the case of `Nc1ccc(N)cc1` [PPD, para-phenylenediamine], the “rate of sensitization caused by the test” value with patch tested subjects (Dawe et al. 2004) is reported as “less than 0.2%”. Besides, the “incidence of active sensitization” value in the data set on patch tested subjects (Devos and van der Valk 2001) is recorded as 1.5%. Further, the “impact of reduced patch test diameter on the reaction intensity observed” value in data set [1] is on record as “no detectable impact”.

These data come from patent US20140241995A1, “MICROPATCH FOR ASSESSING CHEMICAL CONTACT ALLERGY” (priority 2011, published 2014).
